Data on 5 compounds can be found in US7045361B2, “Analyte sensing via acridine-based boronate biosensors” (Medtronic MiniMed, Inc., priority 2001, dated 2006).

Data set [1] in a line: Comparative analysis of the spectral properties of fluorophores. In kind it is physicochemical. The conditions noted are these: for λem(max) / λex / λem(50% max): PBS containing 0.5% DMSO at 21° C; for λem(50% max): bathochromic wavelength at 50% of maximum. An excerpt: A comparative analysis of the spectral properties of certain fluorophores is shown Table 1. […] This phenomenon is unexpected given the chemical similarity between anthracene and an acridine. As shown in the Table 1, the acridine orange fluorophore emits at even longer wavelengths.

A short description of data set [2]: Emission spectra in presence and absence of glucose (FIG. 14A/14B transduction experiment). The text has this: FIG. 14A depicts the results of a transduction experiment with anthracene boronate.
FIG. 14B depicts the results of a transduction experiment with methylacridine boronate (MEACRAB) in the presence of glucose.
A comparison of anthracene boronate and methylacridine boronate (MEACRAB) in the presence and absence of glucose further highlights the unexpected differences between these two fluorescent molecules in terms of their respective fluorescent properties, such as transduction of glucose at longer wavelengths, i.e., glucose sensing capacity as indicated by a change in fluorescence in the presence of glucose at longer wavelengths. These differences are illustrated in FIG. 14A and FIG. 14B, which depicts the emission spectra of anthracene boronate and methylacridine boronate, respectively in the presence and absence of glucose. From inspection of FIG. 14A, it can be observed that at about 440 nm, which is about at a peak of next to maximum intensity, anthracene boronate yields about 25% transduction in the presence of glucose. […] For instance, at about 500 nm, methylacridine boronate yields about 25% transduction in the presence of glucose. Thus, the ability of an acridine boronate, such as methylacridine boronate, to transduce in the presence of glucose at longer wavelengths, as compared with anthracene boronate, is unexpected. […]

Data set [3] can be described thus: Glucose transduction of monotopic acridine-based boronate biosensor molecules by fluorescence spectroscopy. The conditions noted are these: for wavelength of maximum intensity (Imax): PBS with DMSO. How it is done:
Glucose transduction of particular acridine-based boronate bio sensor molecules was observed using fluorescence spectroscopy. Fluorescence measurements were taken on a Yorbin Fluorolog instrument. […]
Aliquots of glucose were added and responses were measured at 436 nm, or maximum intensity. (See Table 3).
Another transduction experiment was performed with ACRAB at 500 nm, or approximately 25% of the value of maximum intensity. The data taken at 500 nm generally parallel those taken at 436 nm, thus indicating no decrease in performance of the acridine-based boronate biosensor molecule at the longer wavelength. This shift of 83 nm is very significant in that it provides about a 10-fold increase of transmission of light through tissue and skin.
MEACRAB was then diluted 100-fold to 100 nM and transduction at conditions of ambient temperature. The solution contained 0.5% DMSO.

For `c1ccc2nc3ccccc3cc2c1` [Acridine], in data set [1], the “λem(max)” value stood at 428 nm, the λex amounted to 360 nm, the “λem(50% max)” value stood at 480 nm and the “emission intensity at about 480 nm relative to intensity of maximum emission wavelength” value is recorded as “approximately 50%”.

For `c1ccc2cc3ccccc3cc2c1` [Anthracene], in data set [1], the “λem(max)” value is recorded as 417 nm, the λex was determined as 370 nm, the “λem(50% max)” value worked out at 428 nm and the “emission intensity at about 480 nm relative to intensity of maximum emission wavelength” value was “no detectable emission”.

Regarding `Cc1ccc2nc3ccccc3c(CN(CCCCCO)Cc3ccccc3B(O)O)c2c1` [MEACRAB, aminomethylhydroxypentyl-methylacridine boronate], the “transduction in the presence of glucose” value in data set [2] (at about 440 nm) is on record as “about 50%”; in data set [2] (at about 500 nm), “about 25%”. Further, the Transduction is 21% in data set [3] (100 nM, 0.5% DMSO, ambient temperature, 509 nm, glucose 87 mg/dL); 29% in data set [3] (100 nM, 0.5% DMSO, ambient temperature, 509 nm, glucose 173 mg/dL); 53% in data set [3] (100 nM, 0.5% DMSO, ambient temperature, 509 nm, glucose 256 mg/dL); 77% in data set [3] (100 nM, 0.5% DMSO, ambient temperature, 509 nm, glucose 341 mg/dL); 94% in data set [3] (100 nM, 0.5% DMSO, ambient temperature, 509 nm, glucose 425 mg/dL); 109% in data set [3] (100 nM, 0.5% DMSO, ambient temperature, 509 nm, glucose 510 mg/dL). Moreover, the Transduction in data set [3] (100 nM, 0.5% DMSO, ambient temperature, 509 nm, glucose 603 mg/dL) is listed as 118%; in data set [3] (100 nM, 0.5% DMSO, ambient temperature, 509 nm, glucose 683 mg/dL), 121%; in data set [3] (100 nM, 0.5% DMSO, ambient temperature, 509 nm, glucose 767 mg/dL) it was 126%; in data set [3] (100 nM, 0.5% DMSO, ambient temperature, 509 nm, glucose 834 mg/dL), 134%; in data set [3] (100 nM, 0.5% DMSO, ambient temperature, 509 nm, glucose 927 mg/dL), 142%; in data set [3] (100 nM, 0.5% DMSO, ambient temperature, 509 nm, glucose 1012 mg/dL), 158%. For the same compound, the Transduction in data set [3] (10 μM in PBS, 4% DMSO, 500 nm, glucose 93 mg/dL) worked out at 30%; in data set [3] (10 μM in PBS, 4% DMSO, 500 nm, glucose 184 mg/dL) it was 60%; in data set [3] (10 μM in PBS, 4% DMSO, 500 nm, glucose 275 mg/dL) it was 100%; in data set [3] (10 μM in PBS, 4% DMSO, 500 nm, glucose 364 mg/dL) it was 120%; in data set [3] (10 μM in PBS, 4% DMSO, 500 nm, glucose 459 mg/dL) it was 170%; in data set [3] (10 μM in PBS, 4% DMSO, 500 nm, glucose 547 mg/dL) it was 190%. Moreover, in data set [3] (10 μM in PBS, 4% DMSO, 500 nm, glucose 650 mg/dL), the Transduction is on record as 220%. Moreover, the “intensity at 500 nm relative to the value of maximum intensity” value in data set [3] (500 nm) came to 25%. Besides, the “wavelength of maximum intensity (Imax)” value in data set [3] was found to be 438 nm. In addition, the “performance at 100 nM compared with ACRAB, or MEACRAB itself, at 10 μM” value in data set [3] (emission wavelength of 500 nm, 0.5% DMSO) is given as “performed better”.

Consider `CN(C)c1ccc2cc3ccc(N(C)C)cc3nc2c1` [Acridine Orange, 3,6-bis(dimethylamino)acridine], for which, in data set [1], the “emission profile detectable out to” value is 575–600 nm, the maximum emission was 525 nm, the “λem(max)” value was found to be 526 nm and the λex is 493 nm. The “λem(50% max)” value in data set [1] is 567 nm.

With “aminomethylhydroxypentyl-acridine boronate [ACRAB]”, in data set [3] (500 nm), the “intensity at 500 nm relative to the value of maximum intensity” value is “approximately 25%”. For the same compound, the Transduction in data set [3] (500 nm, glucose 49 mg/dL) was 11%; in data set [3] (500 nm, glucose 149 mg/dL), 24%; in data set [3] (500 nm, glucose 198 mg/dL), 37%; in data set [3] (500 nm, glucose 284 mg/dL) it was 47%; in data set [3] (500 nm, glucose 374 mg/dL), 56%; in data set [3] (500 nm, glucose 441 mg/dL) it was 62%. For the same compound, the Transduction in data set [3] (500 nm, glucose 559 mg/dL) was 67%; in data set [3] (approx 10 μM, PBS pH 7.4, 0.5% DMSO, 436 nm, glucose 50 mg/dL) it was 15%; in data set [3] (approx 10 μM, PBS pH 7.4, 0.5% DMSO, 436 nm, glucose 150 mg/dL), 27%; in data set [3] (approx 10 μM, PBS pH 7.4, 0.5% DMSO, 436 nm, glucose 200 mg/dL), 41%; in data set [3] (approx 10 μM, PBS pH 7.4, 0.5% DMSO, 436 nm, glucose 300 mg/dL) it was 48%. The “wavelength of maximum intensity (Imax)” value in data set [3] was 436 nm.
